Source: patent US20170001990A1 (Genentech, Inc., priority 2014, published 2017)

Target: Human recombinant carboxy-terminal his-tagged LDHA (amino acids 2-332) (Homo sapiens, UniProt P00338)
Assay: LDHA enzyme inhibition assay (NADH fluorescence)
Settings: LDHA IC50 (μM), 1 nM LDHA, NADH and pyruvate, stereochemistry of tested sample given

Row | SMILES | IC50
1 | O=C1CC(c2ccsc2)(c2cccc(OCCCC(F)(F)F)n2)NC(=O)C1Sc1ccccc1Cl (single isomer, unassigned) [Example 121, 3-(2-chlorophenyl)sulfanyl-6-(3-thienyl)-6-[6-(4,4,4-trifluorobutoxy)-2-pyridyl]piperidine-2,4-dione] | 0.008 µM
2 | O=C1CC(c2ccsc2)(c2cccc(Oc3ccc(F)c(Br)c3)n2)NC(=O)C1Sc1ccccc1Cl (single isomer, unassigned) [Example 122, 6-[6-(3-bromo-4-fluoro-phenoxy)-2-pyridyl]-3-(2-chlorophenyl)sulfanyl-6-(3-thienyl)piperidine-2,4-dione] | 0.022 µM
3 | CC(C)CCOc1cccc(C2(c3ccsc3)CC(=O)C(Sc3ccccc3Cl)C(=O)N2)n1 (single isomer, unassigned) [Example 124, 3-((2-chlorophenyl)thio)-6-(6-(isopentyloxy)pyridin-2-yl)-6-(thiophen-3-yl)piperidine-2,4-dione] | 0.003 µM
4 | O=C1CC(c2ccsc2)(c2cccc(OCCC3CCCC3)n2)NC(=O)C1Sc1ccccc1Cl (single isomer, unassigned) [Example 125, 3-((2-chlorophenyl)thio)-6-(6-(2-cyclopentyl-ethoxy)pyridin-2-yl)-6-(thiophen-3-yl) piperidine-2,4-dione] | 0.003 µM
5 | CC(C)(O)CCCOc1cccc(C2(c3ccsc3)CC(=O)C(Sc3ccccc3Cl)C(=O)N2)n1 (single isomer, unassigned) [Example 126, 3-(2-chlorophenyl)sulfanyl-6-[6-(4-hydroxy-4-methyl-pentoxy)-2-pyridyl]-6-(3-thienyl) piperidine-2,4-dione] | 0.238 µM
6 | O=C1CC(c2ccsc2)(c2cccc(Oc3cccc(C(F)F)c3)n2)NC(=O)C1Sc1ccccc1Cl (single isomer, unassigned) [Example 127, 3-(2-chlorophenyl)sulfanyl-6-[6-[3-(difluoromethyl)phenoxy]-2-pyridyl]-6-(3-thienyl)piperidine-2,4-dione] | 0.008 µM
7 | O=C1CC(c2ccsc2)(c2cccc(Oc3cccc4ncccc34)n2)NC(=O)C1Sc1ccccc1Cl (single isomer, unassigned) [Example 128, 3-(2-chlorophenyl)sulfanyl-6-[6-(5-quinolyloxy)-2-pyridyl]-6-(3-thienyl) piperidine-2,4-dione] | 0.024 µM
8 | O=C1CC(c2ccsc2)(c2cccc(Cc3cc(F)cc(F)c3)n2)NC(=O)C1Sc1ccccc1Cl (single isomer, unassigned) [Example 129, 3-((2-chlorophenyl)thio)-6-(6-(3,5-difluorobenzyl)pyridin-2-yl)-6-(thiophen-3-yl)piperidine-2,4-dione] | 0.02 µM
9 | O=C1CC(c2ccsc2)(c2cccc(OCCC3CCC3)n2)NC(=O)C1Sc1ccccc1Cl (single isomer, unassigned) [Example 132, 3-((2-chlorophenyl)thio)-6-(6-(2-cyclobutyl-ethoxy)pyridin-2-yl)-6-(thiophen-3-yl)piperidine-2,4-dione] | 0.009 µM
10 | CC(C)CCOc1cccc(C2(c3ccsc3)CC(=O)C(Sc3ccccc3Cl)C(=O)N2)n1 (single isomer, unassigned) [Example 133, 3-(2-chlorophenyl)sulfanyl-6-(6-isopentyloxy-2-pyridyl)-6-(3-thienyl) piperidine-2,4-dione] | 0.089 µM
11 | O=C1CC(c2ccsc2)(c2cccc(OCCC3CCCC3)n2)NC(=O)C1Sc1ccccc1Cl (single isomer, unassigned) [Example 134, 3-(2-chlorophenyl)sulfanyl-6-[6-(2-cyclopentyl-ethoxy)-2-pyridyl]-6-(3-thienyl)piperidine-2,4-dione] | 0.008 µM
12 | CC(C)(O)CCCOc1cccc(C2(c3ccsc3)CC(=O)C(Sc3ccccc3Cl)C(=O)N2)n1 (single isomer, unassigned) [Example 135, 3-(2-chlorophenyl)sulfanyl-6-[6-(4-hydroxy-4-methyl-pentoxy)-2-pyridyl]-6-(3-thienyl) piperidine-2,4-dione] | 0.04 µM
13 | O=C1CC(c2ccsc2)(c2cccc(Oc3cccc(C(F)F)c3)n2)NC(=O)C1Sc1ccccc1Cl (single isomer, unassigned) [Example 136, 3-(2-chlorophenyl)sulfanyl-6-[6-[3-(difluoro-methyl)phenoxy]-2-pyridyl]-6-(3-thienyl) piperidine-2,4-dione] | 0.222 µM
14 | O=C1CC(c2ccsc2)(c2cccc(Oc3cccc4ncccc34)n2)NC(=O)C1Sc1ccccc1Cl (single isomer, unassigned) [Example 137, 3-(2-chlorophenyl)sulfanyl-6-[6-(5-quinolyloxy)-2-pyridyl]-6-(3-thienyl) piperidine-2,4-dione] | 0.073 µM
15 | O=C1CC(c2ccsc2)(c2cccc(OCCC3CCC3)n2)NC(=O)C1Sc1ccccc1Cl (single isomer, unassigned) [Example 141, 3-(2-chlorophenyl)sulfanyl-6-[6-(2-cyclobutyl-ethoxy)-2-pyridyl]-6-(3-thienyl)piperidine-2,4-dione] | 0.003 µM
16 | O=C1CC(c2ccsc2)(c2cccc(OCCCC(F)(F)F)n2)NC(=O)C1Sc1ccccc1Cl (single isomer, unassigned) [Example 142, 3-(2-chlorophenyl)sulfanyl-6-(3-thienyl)-6-[6-(4,4,4-trifluorobutoxy)-2-pyridyl]piperidine-2,4-dione] | 0.031 µM

Row | SMILES | IC50
17 | O=C1CC(c2ccsc2)(c2cccc(Oc3ccc(F)c(Br)c3)n2)NC(=O)C1Sc1ccccc1Cl (single isomer, unassigned) [Example 143, 6-[6-(3-bromo-4-fluoro-phenoxy)-2-pyridyl]-3-(2-chlorophenyl)sulfanyl-6-(3-thienyl)piperidine-2,4-dione] | 0.033 µM
18 | O=C1CC(c2ccsc2)(c2cccc(Oc3ccc(F)c(C(F)(F)F)c3)n2)NC(=O)C1Sc1ccccc1Cl (single isomer, unassigned) [Example 144, 3-(2-chlorophenyl)sulfanyl-6-[6-[4-fluoro-3-(trifluoromethyl)phenoxy]-2-pyridyl]-6-(3-thienyl) piperidine-2,4-dione] | 0.143 µM
19 | CC(C)(O)CCOc1cccc(C2(c3ccsc3)CC(=O)C(Sc3ccccc3Cl)C(=O)N2)n1 (single isomer, unassigned) [Example 145, 3-(2-chlorophenyl)sulfanyl-6-[6-(3-hydroxy-3-methyl-butoxy)-2-pyridyl]-6-(3-thienyl)piperidine-2,4-dione] | 0.088 µM
20 | O=C1CC(c2ccsc2)(c2cccc(Cc3cc(F)cc(F)c3)n2)NC(=O)C1Sc1ccccc1Cl (single isomer, unassigned) [Example 146, 3-(2-chlorophenyl)sulfanly-6-[6-[(3,5-difluorophenyl)methyl]-2-pyridyl]-6-(3-thienyl)piperidine-2,4-dione] | 0.189 µM
21 | O=C1CC(c2ccsc2)(c2cccc(OCCCC(F)(F)F)n2)NC(=O)C1Sc1ccccc1Cl (single isomer, unassigned) [Example 148, 3-(2-chlorophenyl)sulfanyl-6-(3-thienyl)-6-[6-(4,4,4-trifluorobutoxy)-2-pyridyl]piperidine-2,4-dione] | 0.014 µM
22 | O=C1CC(c2ccsc2)(c2cccc(Oc3ccc(F)c(Br)c3)n2)NC(=O)C1Sc1ccccc1Cl (single isomer, unassigned) [Example 149, 6-[6-(3-bromo-4-fluoro-phenoxy)-2-pyridyl]-3-(2-chlorophenyl)sulfanyl-6-(3-thienyl)piperidine-2,4-dione] | 0.069 µM
23 | CC(C)(O)CCOc1cccc(C2(c3ccsc3)CC(=O)C(Sc3ccccc3Cl)C(=O)N2)n1 (single isomer, unassigned) [Example 155, 3-(2-chlorophenyl)sulfanyl-6-[6-(3-hydroxy-3-methyl-butoxy)-2-pyridyl]-6-(3-thienyl)piperidine-2,4-dione] | 0.025 µM
24 | COc1cc(F)cc(Cc2cccc(C3(c4ccsc4)CC(=O)C(Sc4ccccc4Cl)C(=O)N3)n2)c1 (single isomer, unassigned) [Example 156, 3-(2-chlorophenyl)sulfanyl-6-[6-[(3-fluoro-5-methoxy-phenyl)methyl]-2-pyridyl]-6-(3-thienyl) piperidine-2,4-dione] | 0.072 µM
25 | O=C1CC(c2ccsc2)(c2cccc(OC3CCCCC3)n2)NC(=O)C1Sc1ccccc1Cl (single isomer, unassigned) [Example 157, 3-(2-chlorophenyl)sulfanyl-6-[6-(cyclohexoxy)-2-pyridyl]-6-(3-thienyl) piperidine-2,4-dione] | 0.03 µM
26 | CC1(COc2cccc(C3(c4ccsc4)CC(=O)C(Sc4ccccc4Cl)C(=O)N3)n2)CC1 (single isomer, unassigned) [Example 158, 3-(2-chlorophenyl)sulfanyl-6-[6-[(1-methylcyclo-propyl)methoxy]-2-pyridyl]-6-(3-thienyl)piperidine-2,4-dione] | 0.018 µM
27 | CC(Oc1cccc(C2(c3ccsc3)CC(=O)C(Sc3ccccc3Cl)C(=O)N2)n1)C1CC1 (single isomer, unassigned) [Example 159, 3-((2-chlorophenyl)thio)-6-(6-(1-cyclopropyl-ethoxy)pyridin-2-yl)-6-(thiophen-3-yl)piperidine-2,4-dione] | 0.004 µM
28 | O=C1CC(c2ccsc2)(c2cccc(Sc3ccc(F)cc3)n2)NC(=O)C1Sc1ccccc1Cl (single isomer, unassigned) [Example 160, 3-(2-chlorophenyl)sulfanyl-6-[6-(4-fluorophenyl)sulfanyl-2-pyridyl]-6-(3-thienyl)piperidine-2,4-dione] | 0.008 µM
29 | O=C1CC(c2ccsc2)(c2cccc(OCCC3CCCCC3)n2)NC(=O)C1Sc1ccccc1Cl (single isomer, unassigned) [Example 161, 3-(2-chlorophenyl)sulfanyl-6-[6-(2-cyclohexylethoxy)-2-pyridyl]-6-(3-thienyl) piperidine-2,4-dione] | 0.019 µM
30 | O=C1CC(c2ccsc2)(c2cccc(OCC3CCOCC3)n2)NC(=O)C1Sc1ccccc1Cl (single isomer, unassigned) [Example 163, 3-((2-chlorophenyl)thio)-6-(6-((tetrahydro-2H-pyran-4-yl)methoxy)pyridin-2-yl)-6-(thiophen-3-yl)piperidine-2,4-dione] | 0.194 µM
31 | O=C1CC(c2ccsc2)(c2cccc(OCC3CC(F)(F)C3)n2)NC(=O)C1Sc1ccccc1Cl (single isomer, unassigned) [Example 165] | 0.004 µM
